The values below come from patent US9572881B2, “Halogenated compounds for photodynamic therapy” (Nanoquantum Sciences, Inc., priority 2012, dated 2017).

The nature of data set [1]: Absorption spectra and extinction coefficients of dyes. The format is physicochemical. The protocol: Absorption spectra were measured at RT on a Perking Elmer Lambda 35 UV/Vis spectrophotometer. […] The stock solution was diluted (1:2000) and the absorbance was measured in a 5-cm standard quartz cell. All dye concentrations were in the range of 1.1 to 2.0×10^−7 M. The extinction coefficients were calculated according to Lambert-Beer's law.

A short description of data set [2]: Fluorescence emission spectra and quantum yield relative to HITC. The format is physicochemical. The protocol:
Fluorescence spectra for the dyes were determined at RT on a Varian Cary Eclipse spectrofluorometer in a standard 1-cm quartz cell. The spectra were corrected. All concentrations of the fluorophores were chosen to be between 0.2 and 1.0 μM.
For the determination of the quantum yields (QY), the integrated relative intensities of the dyes or dye-protein conjugates, were measured against HITC as the reference. All absorbances at excitation wavelength (λexc) were in the range of 0.04-0.08 (when measured in a 1-cm cell).
The QY of each sample was independently measured 3-4 times and the average value was calculated.

Data set [3] is described as follows: Phototoxicity (glow lamp) and dark toxicity by hemolysis of bovine erythrocytes. It is filed as cell-based. As to conditions: bovine, bovine erythrocytes, Glow Lamp. The protocol:
(§1) Bovine erythrocytes were isolated from blood plasma stored with sodium citrate. 1 mL of bovine blood was treated at centrifuge (3,000 rpm) for 10 min to precipitate erythrocytes. The supernatant was decanted, 2 mL of physiological solution were added, treated and erythrocytes were precipitated with centrifuge. The washing procedure was repeated for 3 times and the precipitated erythrocytes were collected. […] Cells were dye-incubated for 45 minutes at 37° C. in the dark. Then the examined suspensions of cells (erythrocytes) were placed at a distance of 30-cm from a 250 W glow red-lamp equipped with a water-based heat filter and irradiated with occasional stirring. After irradiation, cells were stored at 4° C. for 15 hours. […] The hemolysis level (percentage of hemolyzed cells) was determined as the ratio of absorbances of the supernatant and a solution of 100% hemolysed cells. The 100% hemolysis was taken as the value obtained when the given number of erythrocytes were suspended in distilled water.

The test system of the next data set is bovine erythrocytes. The data set is described as above. The format is cell-based. As to conditions: Dark. The protocol:
as §1

Data set [4] can be described thus: Singlet oxygen quantum yield, DPBF scavenger method in ethanol. It is filed as physicochemical. To be noted: measured in ethanol, 650 nm laser, ICG reference.
Procedure: The modified relative photochemical method of Spiller W. et al. (J. Porphyrins Phthalocyanines, 1998, V. 2, 145-158) utilizing 1,3-diphenylisobenzofuran (DPBF) as a chemical scavenger was used to determine the photosensitiser's singlet oxygen quantum yields (ΦΔ) in ethanol solutions.
Ethanolic solutions containing DPBF (10 μM) and sensitizers with absorbance (optical density) in a range between 0.09 and 0.10 at 650 nm (measured in a standard 1-cm quartz cell) were prepared. Samples were saturated with oxygen by bubbling. Next, 3 mL of the solution were placed in a 1-cm cell equipped with a stirring bar and a 10 mW, 650 nm diode laser was hermetically attached to the top of cuvette so as to avoid solvent evaporation and to provide a light beam direction from top to bottom of the cuvette. The solution in the cuvette was irradiated with the diode laser under continuous stirring for a certain time. DPBF consumption was determined by monitoring DPBF bleaching over irradiation time using absorption spectroscopy at 411 nm (extinction coefficient 22,000 M^−1 cm^−1). At least six absorption spectra were obtained for each solution at different irradiation times until the DPBF absorbance reduced at least to the 10% of the initial absorbance.
The decrease of DPBF absorbance at 411 nm versus irradiation time was plotted for each photosensitizer and the DPBF degradation rate constant (K) characterizing the reaction rate of singlet oxygen with DPBF in presence of a sensitizer was calculated.
For data set [5] the following is noted: cited from earlier work.
For data set [6] the following is noted: ethanol; reference value from Cardillo et al.; cited from earlier work.
The conditions of data set [7]: background statement, at ~780 nm; cited from earlier work.

For the compound `CN1\C(=C/C=C/C=C/C=C/C2=[N+](C)c3ccccc3C2(C)C)C(C)(C)c2ccccc21.[I-]` [HITC, 1,1′,3,3,3′,3′-hexamethylindotricarbocyanine, reference compound], in data set [1] (Methanol), the Absorption max. turned out to be 740 nm. In data set [2] (Methanol), this compound gave an Emission max. of 768 nm and a Fluorescence quantum yield of 28%. Besides, in data set [3] (1 μM, exposure 60 min), the hemolysis at 60 min, 1 µM worked out at 4.4%. Moreover, in data set [3] (1 μM, exposure 120 min), the hemolysis at 120 min, 1 µM came out at 5.4%. For the same compound, the hemolysis at 60 min, 5 µM in data set [3] (5 μM, exposure 60 min) was determined as 65%. This compound had a hemolysis at 120 min, 5 µM in data set [3] (5 μM, exposure 120 min) of 74%. The Hemolysis with bovine erythrocytes (5 μM) is on record as 2.0%. The compound also had a Hemolysis in the data set on bovine erythrocytes (10 μM) of 6.7%. In addition, the “Singlet oxygen generation quantum yield ΦΔ” value in data set [4] is given as 5%. The QY of reference in data set [5] (in methanol, reference standard) is 28%.

On to `CC1(C)C(/C=C/C=C/C=C/C=C2\N(CCCCS(=O)(=O)[O-])c3ccc4ccccc4c3C2(C)C)=[N+](CCCCS(=O)(=O)[O-])c2ccc3ccccc3c21.[Na+]` [ICG, Indocyanine green, reference compound], for which the “Extinction Coefficient” value in data set [1] (Methanol) is 200,000 M^−1cm^−1; in data set [1] (Water) it was 114,000 M^−1cm^−1. The Emission max. in data set [2] (Methanol) came to 818 nm; in data set [2] (Water), 810 nm. This compound also showed a Fluorescence quantum yield in data set [2] (Methanol) of 16%. The “Singlet oxygen generation quantum yield ΦΔ” value in data set [4] is reported as 12%. In addition, the “quantum yield (reporter)” value in data set [5] (in water, background statement) was 0.5-1.3%. For the same compound, in data set [6], the “singlet oxygen quantum yield ΦΔ of reference” value was 12%. Further, in data set [7], the extinction coefficients is recorded as 200,000 M^−1 cm^−1.
